The values below come from paper PMC10536065 (ACS Omega, 2023).

Entries after “also recorded” stand apart in the source; their conditions may differ.

In data set [1] the target is T1, Type I collagen (Bos taurus, UniProt P02453+P02465). Kind of data set: ELISA saturation binding to collagen. Also noted: species or system bovine.
Data set [2] in a line: Circular dichroism spectroscopy. Particulars: NaCl, MgCl2, CaCl2; 10 μM peptide. The class given is physicochemical.
The target of data set [3] is T1, Type I collagen. Kind of data set: Inhibition of cCBD-LL37 binding to collagen by cCBD. Also noted: species or system bovine. Particulars: 500 nM cCBD-LL37 with 0–500 nM cCBD, 1 h room temperature; n = 4.

T1 sequence (P02453 162-1217 limits assumed): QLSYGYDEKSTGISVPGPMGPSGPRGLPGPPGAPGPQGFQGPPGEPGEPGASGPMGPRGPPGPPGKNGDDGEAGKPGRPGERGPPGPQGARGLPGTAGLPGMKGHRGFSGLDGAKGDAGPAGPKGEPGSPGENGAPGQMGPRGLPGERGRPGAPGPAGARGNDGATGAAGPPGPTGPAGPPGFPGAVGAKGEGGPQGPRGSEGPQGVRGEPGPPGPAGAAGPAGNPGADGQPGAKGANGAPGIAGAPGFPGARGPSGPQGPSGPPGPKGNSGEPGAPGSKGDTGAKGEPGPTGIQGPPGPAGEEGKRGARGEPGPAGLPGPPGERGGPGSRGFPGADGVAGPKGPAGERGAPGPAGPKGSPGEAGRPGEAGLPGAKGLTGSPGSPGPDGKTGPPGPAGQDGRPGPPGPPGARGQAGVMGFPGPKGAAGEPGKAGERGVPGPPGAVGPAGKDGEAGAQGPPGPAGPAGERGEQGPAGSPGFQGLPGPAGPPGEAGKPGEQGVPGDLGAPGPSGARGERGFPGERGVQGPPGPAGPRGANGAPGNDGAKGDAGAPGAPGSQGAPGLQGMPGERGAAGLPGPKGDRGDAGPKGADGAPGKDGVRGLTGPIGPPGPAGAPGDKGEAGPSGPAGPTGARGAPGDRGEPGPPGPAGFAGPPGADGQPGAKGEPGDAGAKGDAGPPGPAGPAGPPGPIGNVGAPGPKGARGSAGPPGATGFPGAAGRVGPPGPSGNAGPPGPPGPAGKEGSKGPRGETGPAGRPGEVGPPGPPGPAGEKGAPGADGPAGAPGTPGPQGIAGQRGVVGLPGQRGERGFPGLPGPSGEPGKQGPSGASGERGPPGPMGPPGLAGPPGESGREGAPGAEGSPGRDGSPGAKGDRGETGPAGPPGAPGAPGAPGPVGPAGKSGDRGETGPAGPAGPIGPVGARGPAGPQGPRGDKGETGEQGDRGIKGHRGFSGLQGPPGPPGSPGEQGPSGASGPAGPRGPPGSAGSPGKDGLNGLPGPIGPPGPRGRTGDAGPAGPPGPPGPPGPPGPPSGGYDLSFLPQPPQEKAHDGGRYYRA
T1 sequence (P02465 80-1117 limits assumed): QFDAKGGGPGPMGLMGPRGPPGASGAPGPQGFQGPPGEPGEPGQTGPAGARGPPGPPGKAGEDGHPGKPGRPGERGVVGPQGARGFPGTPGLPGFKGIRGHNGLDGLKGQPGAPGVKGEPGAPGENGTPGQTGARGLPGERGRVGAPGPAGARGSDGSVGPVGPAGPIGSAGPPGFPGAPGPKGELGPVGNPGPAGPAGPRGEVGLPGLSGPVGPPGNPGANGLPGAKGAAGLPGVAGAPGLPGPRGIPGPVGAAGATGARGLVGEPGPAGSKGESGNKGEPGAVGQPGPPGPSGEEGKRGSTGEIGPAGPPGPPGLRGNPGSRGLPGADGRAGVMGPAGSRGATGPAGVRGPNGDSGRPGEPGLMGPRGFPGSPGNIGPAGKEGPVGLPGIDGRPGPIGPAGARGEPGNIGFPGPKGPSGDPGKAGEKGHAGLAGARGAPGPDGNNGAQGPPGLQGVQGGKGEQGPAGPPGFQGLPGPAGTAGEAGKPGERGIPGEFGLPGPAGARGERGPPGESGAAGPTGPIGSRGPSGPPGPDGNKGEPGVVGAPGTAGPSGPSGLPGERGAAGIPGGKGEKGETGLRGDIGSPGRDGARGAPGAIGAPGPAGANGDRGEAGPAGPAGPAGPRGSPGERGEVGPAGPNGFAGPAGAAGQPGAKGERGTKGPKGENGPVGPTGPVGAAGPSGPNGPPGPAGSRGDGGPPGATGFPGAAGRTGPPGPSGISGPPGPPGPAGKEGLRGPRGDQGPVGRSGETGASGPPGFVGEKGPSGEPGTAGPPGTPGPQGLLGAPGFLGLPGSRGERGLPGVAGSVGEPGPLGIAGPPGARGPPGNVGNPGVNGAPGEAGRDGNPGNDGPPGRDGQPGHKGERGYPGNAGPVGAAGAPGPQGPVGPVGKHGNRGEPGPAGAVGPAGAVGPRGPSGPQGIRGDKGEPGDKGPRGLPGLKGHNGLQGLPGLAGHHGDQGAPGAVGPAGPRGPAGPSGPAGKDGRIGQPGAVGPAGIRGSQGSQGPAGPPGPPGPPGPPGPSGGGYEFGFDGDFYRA

Regarding `CC[C@H](C)[C@H](NC(=O)[C@H](CCCCN)NC(=O)[C@H](CCC(=O)O)NC(=O)[C@H](CCCCN)NC(=O)[C@H](CO)NC(=O)[C@H](CCCCN)NC(=O)[C@H](CCCNC(=N)N)NC(=O)[C@H](Cc1ccccc1)NC(=O)[C@H](Cc1ccccc1)NC(=O)[C@H](CC(=O)O)NC(=O)CNC(=O)[C@H](CC(C)C)NC(=O)[C@@H](N)CC(C)C)C(=O)NCC(=O)N[C@@H](CCCCN)C(=O)N[C@@H](CCC(=O)O)C(=O)N[C@@H](Cc1ccccc1)C(=O)N[C@@H](CCCCN)C(=O)N[C@@H](CCCNC(=N)N)C(=O)N[C@H](C(=O)N[C@H](C(=O)N[C@@H](CCC(N)=O)C(=O)N[C@@H](CCCNC(=N)N)C(=O)N[C@H](C(=O)N[C@@H](CCCCN)C(=O)N[C@@H](CC(=O)O)C(=O)N[C@@H](Cc1ccccc1)C(=O)N[C@@H](CC(C)C)C(=O)N[C@@H](CCCNC(=N)N)C(=O)N[C@@H](CC(N)=O)C(=O)N[C@@H](CC(C)C)C(=O)N[C@H](C(=O)N1CCC[C@H]1C(=O)N[C@@H](CCCNC(=N)N)C(=O)N[C@H](C(=O)N[C@@H](CCC(=O)O)C(=O)N[C@@H](CO)C(=O)O)[C@@H](C)O)C(C)C)[C@@H](C)CC)C(C)C)[C@@H](C)CC` [LL37, reference compound], the dissociation constant (Kd) at Type I collagen [1] came to 80 nM.

As for `CC[C@H](C)[C@H](NC(=O)[C@H](CCCCN)NC(=O)[C@H](CCC(=O)O)NC(=O)[C@H](CCCCN)NC(=O)[C@H](CO)NC(=O)[C@H](CCCCN)NC(=O)[C@H](CCCNC(=N)N)NC(=O)[C@H](Cc1ccccc1)NC(=O)[C@H](Cc1ccccc1)NC(=O)[C@H](CC(=O)O)NC(=O)CNC(=O)[C@H](CC(C)C)NC(=O)[C@@H](N)CC(C)C)C(=O)NCC(=O)N[C@@H](CCCCN)C(=O)N[C@@H](CCC(=O)O)C(=O)N[C@@H](Cc1ccccc1)C(=O)N[C@@H](CCCCN)C(=O)N[C@@H](CCCNC(=N)N)C(=O)N[C@H](C(=O)N[C@H](C(=O)N[C@@H](CCC(N)=O)C(=O)N[C@@H](CCCNC(=N)N)C(=O)N[C@H](C(=O)N[C@@H](CCCCN)C(=O)N[C@@H](CC(=O)O)C(=O)N[C@@H](Cc1ccccc1)C(=O)N[C@@H](CC(C)C)C(=O)N[C@@H](CCCNC(=N)N)C(=O)N[C@@H](CC(N)=O)C(=O)N[C@@H](CC(C)C)C(=O)N[C@H](C(=O)N1CCC[C@H]1C(=O)N[C@@H](CCCNC(=N)N)C(=O)N[C@H](C(=O)N[C@@H](CCC(=O)O)C(=O)N[C@@H](CO)C(=O)N[C@@H](CC(=O)O)C(=O)N[C@@H](Cc1ccc(O)cc1)C(=O)N[C@@H](CCCCN)C(=O)N[C@@H](CC(=O)O)C(=O)N[C@@H](CC(=O)O)C(=O)N[C@@H](CC(=O)O)C(=O)N[C@@H](CC(=O)O)C(=O)N[C@@H](CCCCN)C(=O)N[C@H](C(=O)N[C@@H](CCCCN)C(=O)N[C@@H](CCCCN)C(=O)N[C@H](C(=O)N[C@@H](CC(C)C)C(=O)N[C@@H](CCCNC(=N)N)C(=O)N[C@H](C(=O)O)[C@@H](C)O)[C@@H](C)O)[C@@H](C)O)[C@@H](C)O)C(C)C)[C@@H](C)CC)C(C)C)[C@@H](C)CC` [cCBD-LL37], the Kd on Type I collagen [1] is 49 nM. The “structural stability at varying ionic strengths compared with LL37” value in data set [2] was “stronger structural stability at varying ionic strengths when compared with LL37”. Take DYKDDDDKTKKTLRT [cCBD]: on Type I collagen [3], the “inhibition of cCBD-LL37 binding to collagen by excess cCBD” value is “significantly (*p < 0.05) inhibited cCBD-LL37 binding to collagen; also recorded: inhibited cCBD-LL37 binding to collagen but did not completely abrogate the binding”.
